Laboratory results: patent US11339142B2, “Di-substituted pyrazole compounds for the treatment of diseases” (FGH BIOTECH, INC., priority 2016, dated 2022)

Experiments:
[1] = tested on: PCSK9 expression; assay: Quantitative PCR (qPCR) inhibition assay, PCSK9 mRNA expression in Hep G2 cells; format: cell-based; conditions: Homo sapiens, HepG2 cells, 24 hours incubation, mRNA by qPCR; for inhibition at 0.32 µM: 320 nM, read-out: PCSK9 Inhibition Percentage (%) at 320 nM
Experimental: Hep G2 cells were obtained from ATCC and grown in DMEM supplemented with 5% FBS in a 5% CO2 incubator at 37° C. For the assay the cells were plated in 24 well plates at a concentration of 100,000 cells/well in DMEM with 5% FBS. The compounds were serially diluted in DMSO from 0.1 to 20 mM and then diluted 1:1000 in growth medium. The medium was added to the cells in duplicate 24 hours after plating. After 24 hours of incubation the RNA was isolated from the cells using the illustra RNAspin Mini kit (GE Healthcare). For the quantitative PCR the RNA was analyzed using the Power SYBR® Green PCR Master Mix (Applied Biosystems) and gene specific primers. The reaction was run on a StepOnePlus Real-Time PCR System (Thermo Fisher Scientific) and the instrument software was used to determine the Ct values. The fold change of mRNA expression relative to the vehicle control was calculated. Primer sequence was as follows: PCSK9, 5′-[…]-3′/5′-[…]-3′.
(§1) All data for Biological Examples 1a and 1b were measured in HepG2 cells. % inhibition of SCD1 expression, % inhibition of PCSK9 expression, and PCSK9 IC50 data are provided in Table 1. NA means the compound was not active at the concentration tested.

[2] = tested on: SCD1 expression; assay: Quantitative PCR (qPCR) inhibition assay, SCD1 mRNA expression in Hep G2 cells; format: cell-based; conditions: Homo sapiens, HepG2 cells, 24 hours incubation, mRNA by qPCR, read-out: SCD1 Inhibition Percentage (%) at 1 μM
Experimental: Hep G2 cells were obtained from ATCC and grown in DMEM supplemented with 10% FBS in a 5% CO2 incubator at 37° C. For the assay the cells were plated in 96 well plates at a concentration of 75,000 cells/well in DMEM with 5% FBS. The compounds were serially diluted in DMSO from 30 to 0.1 mM and then diluted 1:1000 in growth medium. The medium was added to the cells in duplicate 24 hours after plating. After 24 hours of incubation the RNA was isolated from the cells using the RNAqueous®-96 Total RNA Isolation Kit (Ambion). The eluted RNA was reverse transcribed using the Cells-to-Ct kit reverse transcriptase (Ambion). For the quantitative PCR the cDNA was analyzed using the Power SYBR® Green PCR Master Mix (Applied Biosystems) and gene specific primers. The reaction was run on an ABI7300 thermocycler and the instrument software was used to determine the Ct values. The fold change of mRNA expression relative to the vehicle control was calculated using the method by Livak. Primer sequence was as follows: SCD1, 5′-[…]-3′/5′-[…]-3′.
as §1

Row | Compound | inhibition at 0.32 µM [1] [%] | inhibition at 1 µM [2] [%] | IC50 [1] [nM]
1 | CCCn1cc(-n2cc(-c3ccc(OCC(F)(F)CO)nc3C)cn2)ccc1=O [Example 82] | ≥ 40 |  | 
2 | CCCn1cc(-n2cc(-c3ccc(OCCCO)cc3Cl)cn2)ccc1=O [Example 33] |  | ≥ 40 | 
3 | CCCn1cc(-n2cc(-c3ccc(OCC4CC4)c(C)c3)cn2)ccc1=O [Example 29] | < 10 |  | 
4 | CCCn1cc(-n2cc(-c3ccc(S(=O)(=O)C4CCC4)cc3F)cn2)ccc1=O [Example 22] |  | ≥ 40 | 150 to 600
5 | CCCn1cc(-n2cc(-c3ccc(OC(C)C)nc3C)cn2)ccc1=O [Example 2] |  | ≥ 40 | 
6 | CCCn1cc(-n2cc(-c3ccc(S(=O)(=O)C4CCC4)cc3Cl)cn2)ccc1=O [Example 23] |  | ≥ 40 | ≤ 150
7 | CCCn1cc(-n2cc(-c3ccc(S(=O)(=O)C(C)C)cc3)cn2)ccc1=O [Example 25] |  | ≥ 40 | 
8 | CCCn1cc(-n2cc(-c3ccc(OCC4(CO)CCC4)nc3C)cn2)ccc1=O [Example 16] | ≥ 40 |  | ≤ 150
9 | CCCn1cc(-n2cc(-c3ccc(O[C@H](C)CC)cc3)cn2)ccc1=O [Example 41] |  | ≥ 40 | 
10 | CCCn1cc(-n2cc(-c3ccc(O[C@H](C)CC)cc3Cl)cn2)ccc1=O [Example 36] |  | ≥ 40 | 
11 | CCCn1cc(-n2cc(-c3ccc(OC(CC)CC)cc3Cl)cn2)ccc1=O [Example 38] | ≥ 40 |  | 
12 | CCCn1cc(-n2cc(-c3ccc(S(=O)(=O)C4CCC(F)(F)CC4)cc3C)cn2)ccc1=O [Example 79] | 10 to 40 |  | 
13 | CCCn1cc(-n2cc(-c3cc(F)c(OCC4CC4)c(F)c3)cn2)ccc1=O [Example 28] | < 10 |  | 
14 | CCCn1cc(-n2cc(-c3ccc(OCC(C)(C)CO)cc3Cl)cn2)ccc1=O [Example 48, 5-(4-(2-chloro-4-(3-hydroxy-2,2-dimethylpropoxy)phenyl)-1H-pyrazol-1-yl)-1-propylpyridin-2(1H)-one] |  | ≥ 40 | 
15 | CCCn1cc(-n2cc(-c3ccc(S(=O)(=O)C(CC)CC)cc3Cl)cn2)ccc1=O [Example 20] |  | ≥ 40 | 
16 | CCCn1cc(-n2cc(-c3ccc(OCC4CC4)c(F)c3)cn2)ccc1=O [Example 27] | < 10 |  | 
17 | CCCn1cc(-n2cc(-c3ccc(OC4CCC4)nc3C)cn2)ccc1=O [Example 7] |  | ≥ 40 | 
18 | CCCn1cc(-n2cc(-c3ccc(S(=O)(=O)C4CC(F)(F)C4)cc3C)cn2)ccc1=O [Example 80] | 10 to 40 |  | 
19 | CCCn1cc(-n2cc(-c3ccc(S(=O)(=O)C4CC4)cc3)cn2)ccc1=O [Example 64] |  | ≥ 40 | 
20 | CCCn1cc(-n2cc(-c3ccc(OCC4CC4)cc3Cl)cn2)ccc1=O [Example 26] | ≥ 40 |  | 
21 | CCCn1cc(-n2cc(-c3ccc(OCC4(CO)CC4)cc3C)cn2)ccc1=O [Example 81] | ≥ 40 |  | ≤ 150
22 | CCCn1cc(-n2cc(-c3cnc(S(=O)(=O)C(C)C)nc3)cn2)ccc1=O [Example 54, 5-(4-(2-(isopropylsulfonyl)pyrimidin-5-yl)-1H-pyrazol-1-yl)-1-propylpyridin-2(1H)-one] | < 10 |  | 
23 | CCCn1cc(-n2cc(-c3ccc(OC)cc3Cl)cn2)ccc1=O [Example 45, 5-(4-(2-chloro-4-methoxyphenyl)-1H-pyrazol-1-yl)-1-propylpyridin-2(1H)-one] |  | 10 to 40 | 
24 | CCCn1cc(-n2cc(-c3ccc(S(=O)(=O)CC)cc3Cl)cn2)ccc1=O [Example 55, 5-(4-(2-chloro-4-(ethylsulfonyl)phenyl)-1H-pyrazol-1-yl)-1-propylpyridin-2(1H)-one] |  | ≥ 40 | 
25 | CCCn1cc(-n2cc(-c3ccc(S(=O)(=O)C4CCC4)cc3C)cn2)ccc1=O [Example 78] | ≥ 40 |  | ≤ 150
26 | CCCn1cc(-n2cc(-c3ccc(OC(F)(F)F)cc3Cl)cn2)ccc1=O [Example 4] |  | ≥ 40 | 
27 | CCCn1cc(-n2cc(-c3ccc(S(=O)(=O)CC4CC4)cc3Cl)cn2)ccc1=O [Example 19] |  | ≥ 40 | 

Row | Compound | inhibition at 0.32 µM [1] [%] | inhibition at 1 µM [2] [%] | IC50 [1] [nM]
28 | CCCn1cc(-n2cc(-c3ccc(O[C@@H](C)CC)nc3C)cn2)ccc1=O [Example 9] | ≥ 40 | ≥ 40 | 
29 | CCCn1cc(-n2cc(-c3ccc(S(=O)(=O)C(C)C)cc3F)cn2)ccc1=O [Example 21] |  | ≥ 40 | 
30 | CCCn1cc(-n2cc(-c3ccc(O[C@@H](C)CC)cc3Cl)cn2)ccc1=O [Example 35] |  | ≥ 40 | 
31 | CCCn1cc(-n2cc(-c3ccc(OC)cc3)cn2)ccc1=O [Example 46, 5-(4-(4-methoxyphenyl)-1H-pyrazol-1-yl)-1-propylpyridin-2(1H)-one] |  | 10 to 40 | 
32 | CCCn1cc(-n2cc(-c3ccc(OC(C)CC)nc3C)cn2)ccc1=O (stereo not drawn) [Example 3] | 10 to 40 | ≥ 40 | 
33 | Cc1nc(OC2CCCC2)ccc1-c1cnn(-c2ccc(=O)n(CC(C)C)c2)c1 [Example 50, 5-(4-(6-(cyclopentyloxy)-2-methylpyridin-3-yl)-1H-pyrazol-1-yl)-1-isobutylpyridin-2(1H)-one] |  | ≥ 40 | 
34 | CCCn1cc(-n2cc(-c3ccc(OC(C)C)cc3Cl)cn2)ccc1=O [Example 40] |  | 10 to 40 | 
35 | CCCn1cc(-n2cc(-c3ccc(OCC4(CO)CC4)nc3C)cn2)ccc1=O [Example 13] | ≥ 40 |  | ≤ 150
36 | CCCn1cc(-n2cc(-c3ccc(OC4CCCC4)nc3C)cn2)ccc1=O [Example 1, 5-(4-(6-(cyclopentyloxy)-2-methylpyridin-3-yl)-1H-pyrazol-1-yl)-1-propylpyridin-2(1H)-one] |  | ≥ 40 | 
37 | CCCn1cc(-n2cc(-c3ccc(OC(C)C4CC4)cc3Cl)cn2)ccc1=O (stereo not drawn) [Example 34] |  | ≥ 40 | 
38 | CCCn1cc(-n2cc(-c3ccc(OC(C)C4CC4)nc3C)cn2)ccc1=O (stereo not drawn) [Example 11] |  | ≥ 40 | 
39 | CCCn1cc(-n2cc(-c3ccc(S(=O)(=O)C(C)C)nc3C)cn2)ccc1=O [Example 52, 5-(4-(6-(isopropylsulfonyl)-2-methylpyridin-3-yl)-1H-pyrazol-1-yl)-1-propylpyridin-2(1H)-one] | < 10 |  | 
40 | CCCn1cc(-n2cc(-c3ccc(OC(C)CO)cc3)cn2)ccc1=O (stereo not drawn) [Example 42] |  | 10 to 40 | 
41 | CCCn1cc(-n2cc(-c3ccc(OC(C)CCO)cc3Cl)cn2)ccc1=O (stereo not drawn) [Example 47, 5-(4-(2-chloro-4-((4-hydroxybutan-2-yl)oxy)phenyl)-1H-pyrazol-1-yl)-1-propylpyridin-2(1H)-one] |  | ≥ 40 | 
42 | CCCn1cc(-n2cc(-c3ccc(OCC4(CO)COC4)cc3Cl)cn2)ccc1=O [Example 39] | ≥ 40 |  | 150 to 600
43 | CCCn1cc(-n2cc(-c3ccc(OCC(C)C)cc3Cl)cn2)ccc1=O [Example 8] | ≥ 40 |  | 150 to 600
44 | CCCn1cc(-n2cc(-c3cnc(OC(C)C)nc3)cn2)ccc1=O [Example 53, 5-(4-(2-isopropoxypyrimidin-5-yl)-1H-pyrazol-1-yl)-1-propylpyridin-2(1H)-one] | < 10 |  | 
45 | CCCn1cc(-n2cc(-c3ccc(OCC(C)(C)CO)nc3C)cn2)ccc1=O [Example 14] | ≥ 40 |  | ≤ 150
46 | CCCn1cc(-n2cc(-c3ccc(OCC4(CO)CCC4)cc3Cl)cn2)ccc1=O [Example 49, 5-(4-(2-chloro-4-((1-(hydroxymethyl)cyclobutyl)methoxy)phenyl)-1H-pyrazol-1-yl)-1-propylpyridin-2(1H)-one] | ≥ 40 |  | ≤ 150
47 | CCCn1cc(-n2cc(-c3ccc(OCC4(CO)COC4)nc3C)cn2)ccc1=O [Example 15] | ≥ 40 |  | ≤ 150
48 | CCCn1cc(-n2cc(-c3ccc(OCC(C)C)cc3F)cn2)ccc1=O [Example 31] | 10 to 40 |  | 
49 | CCCn1cc(-n2cc(-c3ccc(OCC4(CO)CC4)cc3Cl)cn2)ccc1=O [Example 32] |  | ≥ 40 | 
50 | CCCn1cc(-n2cc(-c3ccc(OC(C)CO)cc3Cl)cn2)ccc1=O (stereo not drawn) [Example 37] |  | ≥ 40 | 
51 | CCCn1cc(-n2cc(-c3ccc(OCC4CC4)cc3F)cn2)ccc1=O [Example 30] | 10 to 40 |  | 
52 | CCCn1cc(-n2cc(-c3ccc(S(=O)(=O)CC)cc3)cn2)ccc1=O [Example 51, 5-(4-(4-(ethylsulfonyl)phenyl)-1H-pyrazol-1-yl)-1-propylpyridin-2(1H)-one] |  | ≥ 40 | 
53 | CCCn1cc(-n2cc(-c3ccc(OC4CC4)nc3C)cn2)ccc1=O [Example 12] |  | 10 to 40 | 
